The source of these data is publication PMC11059093 (Frontiers in Chemistry, 2024).

One series addresses T1, Aβ1–42 (Homo sapiens, UniProt P05067).
T1 construct: Aβ1−42 (Sigma-Aldrich) was dissolved in NH4OH (1% v/v) to get a stock solution; purchased Sigma-Aldrich
Put plainly: Inhibition of self-mediated Aβ1–42 aggregation, thioflavin T fluorescence assay. Type of series: biochemical. Particulars: ThT assay, compounds 20 μM, mean of n = 3 ± SD.

In series [1] the target is T2, Cu^2+-induced Aβ1-42 aggregation (Homo sapiens, UniProt P05067).
T2 construct: Aβ1-42 (Sigma-Aldrich A9810, 20 μM) was dissolved in HEPES buffer; purchased Sigma-Aldrich A9810
T2 sequence (P05067 672-713 limits assumed): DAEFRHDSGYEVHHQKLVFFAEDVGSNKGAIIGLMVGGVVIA
The experiment in a line: Cu^2+-induced Aβ1-42 aggregation, thioflavin T fluorometric detection. Type of series: biochemical. Particulars: ThT, compound stock 150 μM; for Disaggregation of Cu^2+-induced Aβ1-42 aggregation: Figure 4A. On the procedure:
To further detect the ability of compounds 6b, CQ and MT to disaggregate or inhibit the Cu^2+-induced Aβ1-42 aggregation, we conducted thioflavin T fluorometric detection ([Hu et al., 2019]).
Detection of the compounds for disaggregated and inhibitory effects on Cu^2+ induced Aβ1-42 aggregation. Aβ1-42 (Sigma-Aldrich A9810, 20 μM) was dissolved in HEPES buffer (pH = 6.6, containing 1% ammonium hydroxide). 10 μL of Aβ1-42 was previously incubated with or without Cu^2+ at 37°C for 3 days to pre-fibrillation. 10 μL of 6b, CQ, and MT (150 μM, in DMSO) were incubated before or after the pre-fibrillation of Aβ1-42 at 37°C for 1 day. After incubation, 170 μL of thioflavin T (5 μM, in 50 mM glycine-NaOH buffer) was added to mix well. After incubation for 5 min, the Aβ1-42 aggregation was detected by Microplate Reader (HITACHI, F-4700) with excitation/emission at 450/485 nm.

The nature of series [2]: Parallel artificial membrane permeability assay for the blood-brain barrier (PAMPA-BBB). Particulars: for Papp / P e: PAMPA; for pred (predicted BBB permeation): classified from PAMPA-BBB Pe; for P e: can cross the blood-brain barrier.
A further series in a line: in vitro. Particulars: PAMPA.
A short description of series [3]: Oxygen radical absorbance capacity (ORAC-FL) assay. Particulars: compounds 5 µM, mean of n = 3 ± SD.
Method: The solution of 2,2′-azobis- (amidinopropane) dihydrochloride (AAPH) was prepared to a final concentration of 40 mM. The mixture of the tested compounds (20 µL) and FL (120 μL; 70 nM) was pre-incubated for 10 min at 37°C, 60 µL of the AAPH solution was added. The fluorescence was recorded every minute for 120 min (excitation, 485 nm; emission, 520 nm). The antioxidant curves (fluorescence versus time) were normalized to the curve of the blank.
Where f0 is the initial fluorescence reading at 0 min and fi is the fluorescence reading at time i. The net AUC was calculated by the expression: AUCsample—AUCblank. Regression equations between net AUC and Trolox concentration were calculated. ORAC-FL value of the tested compound expressed as Trolox equivalents.
For series [4] the following is noted: 13 commercial drugs for validation, literature value; ref Bibl a; cited from earlier work.

Bounds are passed on as bounds.

T1 sequence (P05067 672-713 limits assumed): as above

`Oc1c(I)cc(Cl)c2cccnc12` [CQ, clioquinol, reference compound] had an inhibition at 20 µM on Aβ1–42 of 30.8 ± 1.08%. Also, in series [1], the “Disaggregation of Cu^2+-induced Aβ1-42 aggregation” value is on record as “significantly disaggregated”.

Turning to `CN(C)CCCN1c2ccccc2Sc2ccc(Cl)cc21` [Chlorpromazinne, chlorpromazine, reference compound], in series [2], the Papp was 6.63 ± 0.81 ×10⁻⁶ cm/s and the “pred (predicted BBB permeation)” value was “CNS+ (Compounds of high BBB permeation (CNS+) Pe>4.7)”.

For the compound `Oc1cccc2ccc(CNCCc3c[nH]c4ccccc34)nc12` [Compound 3a, 2-(((2-(1H-indol-3-yl)ethyl)amino)methyl)quinolin-8-ol], 20 µM produced 27.1 ± 5.01% inhibition at Aβ1–42. Besides, the Papp in the series “in vitro” stood at 8.08 ± 0.56 ×10⁻⁶ cm/s. Moreover, the ORAC in series [3] turned out to be 3.50 ± 0.12 Trolox equivalents. In series [2], the “P e” value is given as > 4.7 and the “pred (predicted BBB permeation)” value was “CNS+ (Compounds of high BBB permeation (CNS+) Pe>4.7)”.

Take `COc1ccc2[nH]cc(CCNCc3ccc4cccc(O)c4n3)c2c1` [Compound 3b, 2-(((2-(5-methoxy-1H-indol-3-yl)ethyl)amino)methyl)quinolin-8-ol]: the inhibition at 20 µM at Aβ1–42 amounted to 18.2 ± 2.02%. The compound also came in with a Papp in “in vitro” of 6.61 ± 0.22 ×10⁻⁶ cm/s. In series [3], this compound yielded an ORAC of 3.25 ± 0.10 Trolox equivalents. In series [2], the “P e” value was > 4.7 and the “pred (predicted BBB permeation)” value was “CNS+ (Compounds of high BBB permeation (CNS+) Pe>4.7)”.

Regarding `Oc1ccc2[nH]cc(CCNCc3ccc4cccc(O)c4n3)c2c1` [Compound 3c, 2-(((2-(5-hydroxy-1H-indol-3-yl)ethyl)amino)methyl)quinolin-8-ol], the inhibition at 20 µM against Aβ1–42 came to 40.2 ± 2.89%. Besides, the Papp in “in vitro” was 4.81 ± 0.87 ×10⁻⁶ cm/s. The ORAC in series [3] is 4.47 ± 0.18 Trolox equivalents. Further, in series [2], the “P e” value is on record as > 4.7 and the “pred (predicted BBB permeation)” value is on record as “CNS+ (Compounds of high BBB permeation (CNS+) Pe>4.7)”.

Consider `Oc1cccc2ccc(CNCc3c[nH]c4ccccc34)nc12` [Compound 3d, 2-((((1H-indol-3-yl)methyl)amino)methyl)quinolin-8-ol], for which the inhibition at 20 µM on Aβ1–42 was 20.5 ± 4.72%. Also, in series [3], the ORAC is reported as 2.60 ± 0.20 Trolox equivalents. Moreover, in series [2], the apparent permeability coefficient (Papp) was 5.09 ± 1.32 ×10⁻⁶ cm/s, the “P e” value is > 4.7 and the “pred (predicted BBB permeation)” value is on record as “CNS+ (Compounds of high BBB permeation (CNS+) Pe>4.7)”.

On Aβ1–42, `CN(CCc1c[nH]c2ccccc12)Cc1ccc2cccc(O)c2n1` [Compound 4, 2-(((2-(1H-indol-3-yl)ethyl)(methyl)amino)methyl)quinolin-8-ol] showed an inhibition at 20 µM of 52.5 ± 6.47%. Further, the Papp in “in vitro” was 9.87 ± 0.66 ×10⁻⁶ cm/s. This compound also gave an ORAC in series [3] of 2.93 ± 0.15 Trolox equivalents. Besides, in series [2], the “P e” value is > 4.7 and the “pred (predicted BBB permeation)” value is on record as “CNS+ (Compounds of high BBB permeation (CNS+) Pe>4.7)”.

In the case of `O=C(NCCc1c[nH]c2ccccc12)c1ccc2cccc(O)c2n1` [Compound 6a, N-(2-(1H-indol-3-yl)ethyl)-8-hydroxyquinoline-2-carboxamide], on Aβ1–42, at 20 µM the inhibition was 45.45 ± 0.41%. The ORAC in series [3] was found to be 2.49 ± 0.22 Trolox equivalents. In series [2], the Papp amounted to 7.71 ± 0.61 ×10⁻⁶ cm/s, the “P e” value is > 4.7 and the “pred (predicted BBB permeation)” value is recorded as “CNS+ (Compounds of high BBB permeation (CNS+) Pe>4.7)”.

The compound `O=C(NCc1c[nH]c2ccccc12)c1ccc2cccc(O)c2n1` [Compound 6d, N-((1H-indol-3-yl)methyl)-8-hydroxyquinoline-2-carboxamide] gave an inhibition at 20 µM on Aβ1–42 of 19.2 ± 5.85%. This compound also gave an ORAC in series [3] of 2.32 ± 0.17 Trolox equivalents. For the same compound, in series [2], the Papp came out at 6.81 ± 1.13 ×10⁻⁶ cm/s, the “P e” value is on record as > 4.7 and the “pred (predicted BBB permeation)” value is recorded as “CNS+ (Compounds of high BBB permeation (CNS+) Pe>4.7)”.

The compound `O=C(Cc1c[nH]c2ccccc12)NCc1ccc(O)c2ncccc12` [Compound 11a, N-((8-hydroxyquinolin-5-yl)methyl)-2-(1H-indol-3-yl)acetamide] returned an inhibition at 20 µM against Aβ1–42 of 44.7 ± 5.18%. The same compound registered an ORAC in series [3] of 2.91 ± 0.16 Trolox equivalents. Besides, in series [2], the Papp was 2.82 ± 0.42 ×10⁻⁶ cm/s and the “pred (predicted BBB permeation)” value is “CNS± (Compounds of uncertain BBB permeation (CNS+/ -) 4.7>Pe>1.8)”.

Regarding `COc1ccc2[nH]cc(CC(=O)NCc3ccc(O)c4ncccc34)c2c1` [Compound 11b, N-((8-hydroxyquinolin-5-yl)methyl)-2-(5-methoxy-1H-indol-3-yl)acetamide], 20 µM produced 34.9 ± 2.91% inhibition at Aβ1–42. The same compound yielded an ORAC in series [3] of 3.58 ± 0.12 Trolox equivalents. Moreover, in series [2], the Papp amounted to 1.35 ± 0.25 ×10⁻⁶ cm/s and the “pred (predicted BBB permeation)” value is listed as “CNS− (Compounds of low BBB permeation (CNS -) Pe<1.8)”.

The compound `O=C(NCCc1c[nH]c2ccccc12)c1ccc2cccnc2c1O` [Compound 13a, N-(2-(1H-indol-3-yl)ethyl)-8-hydroxyquinoline-7-carboxamide] registered an inhibition at 20 µM on Aβ1–42 of 47 ± 6.25%. For the same compound, the ORAC in series [3] came out at 1.06 ± 0.07 Trolox equivalents. In series [2], the Papp came to 3.98 ± 0.45 ×10⁻⁶ cm/s and the “pred (predicted BBB permeation)” value is recorded as “CNS± (Compounds of uncertain BBB permeation (CNS+/ -) 4.7>Pe>1.8)”.

For the compound `COc1ccc2[nH]cc(CCNC(=O)c3ccc4cccnc4c3O)c2c1` [Compound 13b, 8-hydroxy-N-(2-(5-methoxy-1H-indol-3-yl)ethyl)quinoline-7-carboxamide], the inhibition at 20 µM at Aβ1–42 was found to be 19.7 ± 2.06%. The ORAC in series [3] came to 1.33 ± 0.02 Trolox equivalents. Further, in series [2], the Papp amounted to 1.12 ± 0.42 ×10⁻⁶ cm/s and the “pred (predicted BBB permeation)” value is listed as “CNS− (Compounds of low BBB permeation (CNS -) Pe<1.8)”.

Take `O=C(NCc1c[nH]c2ccccc12)c1ccc2cccnc2c1O` [Compound 13c, N-((1H-indol-3-yl)methyl) -8-hydroxyquinoline-7-carboxamide]: on Aβ1–42, at 20 µM the inhibition was 38.6 ± 5.12%. In series [3], this compound had an ORAC of 0.94 ± 0.02 Trolox equivalents. Besides, in series [2], the apparent permeability coefficient (Papp) came out at 2.65 ± 0.46 ×10⁻⁶ cm/s and the “pred (predicted BBB permeation)” value is given as “CNS± (Compounds of uncertain BBB permeation (CNS+/ -) 4.7>Pe>1.8)”.

At Aβ1–42, `COc1cc(/C=C/C(=O)CC(=O)/C=C/c2ccc(O)c(OC)c2)ccc1O` [Curcumin, reference compound] yielded an inhibition at 20 µM of 52.9 ± 6.38%.

In turn, `COc1ccc2[nH]cc(CCNC(C)=O)c2c1` [Melatonin] came in with an inhibition at 20 µM against Aβ1–42 of 39 ± 9.35%. The “Disaggregation of Cu^2+-induced Aβ1-42 aggregation” value in series [1] is “mild disaggregated effect”. Also, the “Inhibition of Cu^2+-induced Aβ1-42 aggregation” value in series [1] (Figure 4B) is reported as “weak inhibitory activity”.

For the compound `CN1C(C(=O)Nc2ccccn2)=C(O)c2ccccc2S1(=O)=O` [piroxicam], the “Pe, Bibl” value in series [4] is 2.5 ×10⁻⁶ cm/s.

`CN(C)CCCN1c2ccccc2Sc2ccccc21` [promazine]: the “Pe, Bibl” value in series [4] was 8.8 ×10⁻⁶ cm/s.
